# Earlier results as cited in US9758831B2, “Methods of predicting clinical course and treating multiple sclerosis” (Tel HaShomer Medical Research Infrastructure and Services …, priority 2009, dated 2017).
# What was measured:
# [1] = tested on: Experimental Autoimmune Encephalomyelitis; conditions: in vivo
# RRN3/rpa43 complex = conditions: in vivo
SMILES,T-cell inflammatory responses [1],effect on Experimental Autoimmune Encephalomyelitis [1],IFNγ production (T lymphocyte),T cell apoptosis (T lymphocyte),lymphocyte proliferation (T lymphocyte),IL2 and IL2 receptor expression (T lymphocyte; activated T cells),"maturation, antigen processing and presentation of dendritic cells (dendritic cells)",TNF-a and IL-6 production (activated macrophages),association of RRN3 with RNA polymerase I (RRN3),phosphorylation of RRN3 (RRN3),formation of RRN3/rpa43 complex (RRN3/rpa43 complex)
"CC(C)[C@]12O[C@H]1[C@@H]1O[C@]13[C@]1(O[C@H]1C[C@H]1C4=C(CC[C@@]13C)C(=O)OC4)[C@@H]2O [Triptolide, Trisoxireno(4b,5:6,7:8a,9)phenanthro(1,2-c)furan-1(3H)-one, 3b,4,4a,6,6a,7a,7b,8b,9,10-decahydro-6-hydroxy-8b-methyl-6a-(1-methylethyl)-, (3bS,4aS,5aS,6R,6aR,7aS,7bS,8aS,8bS)-]",modulates T-cell inflammatory responses,ameliorates Experimental Autoimmune Encephalomyelitis,inhibition,T cell apoptosis induction,inhibition of lymphocyte prolipheration,decreased,can inhibit,can suppress,,,
C[C@@H]1C[C@@H]([C@H](O)CC2CC(=O)NC(=O)C2)C(=O)[C@@H](C)C1 [Cycloheximide],,,,,,,,,causes its dissociation from RNA polymerase I,inhibits the phosphorylation of RRN3,inhibits the formation of a RRN3/rpa43 complex in vivo
